This assay relates to PI3-kinase. Nature of the assay: NanoBRET screening of ARCS for covalent binding in transfected HEK293 cells. Details: species or system Human. The note with it: HEK293 cells transfected with NanoLuc-target fusion, overnight incubation, washout. The method, then: Human embryonic kidney 293-H (HEK 293, Gibco 293-H, #11631017) cell lines are maintained in Dulbecco's Modified Eagle Medium, high glucose, pyruvate (DMEM, Gibco, #11995065) supplemented with 10% fetal bovine serum (FBS, Gibco, #10082147) and 1× penicillin-streptomycin (100× solution, Gibco, #15140148) at 37° C. and 5% CO2 in a water-saturated incubator. Cell are trypsinized using 0.05% or 0.25% Trypsin-EDTA solution (Trypsin-EDTA, phenol red, Gibco, #25200056 (0.25%) or #25300054). Opti-MEM media supplemented with 10% fetal bovine serum (Opti-MEM I reduced serum media, no phenol red, Gibco, #11058021) is used for culturing cells overnight for NanoBRET readout experiments.
HEK293 cells are cultivated appropriately prior to assay. The medium from cell flask is removed via aspiration, washed 1× with PBS followed by aspiration, trypsinized, and cells are allowed to dissociate from the flask. Trypsin is neutralized using growth medium and cells are pelleted via centrifugation at 200×g for 5 minutes. The medium is aspirated and the cells are resuspended into a single cell suspension using Opti-MEM I supplemented with 10% FBS. The cell density is adjusted to 2×10^5/mL in Opti-MEM I supplemented with 10% FBS in a sterile, conical tube. The cells are transfected and aliquoted directly in a 96-well plate for the NanoBRET assay the next day, and therefore, the cells are cultured overnight in Opti-MEM. The cells are also transfected in bulk and dispensed into a 96-well plate to allow cells to adhere to the plate overnight, thereby enabling washout studies.
The lipid:DNA complexes are prepared as follows:
A 10 μg/mL solution of DNA is prepared in Opti-MEM without serum. This solution contains the following ratios of carrier DNA and DNA encoding NanoLuc fused to the biological target. Serial dilution steps may be warranted to accurately dilute the NanoLuc fusion DNA. Added, in order, the following reagents to a sterile polystyrene test tube: 1 mL of Opti-MEM without phenol red; 9.0 μg/mL of carrier DNA; 1.0 μg/mL of NanoLuc fusion DNA (for some targets, the amount is less). The reagents are mixed thoroughly.
30 μL of FuGENE HD is added into each mL of DNA mixture to form lipid:DNA complex. […] It is mixed by pipetting up and down 5-10 times and incubated at room temperature for 20 minutes to allow complexes to form. 1 part (e.g. 1 mL) of lipid:DNA complex is mixed with 20 parts (e.g. 20 mL) of HEK293 cells in suspension at 2×10^5/mL and mixed gently by pipetting up and down 5 times in a sterile, conical tube. Larger or smaller bulk transfections are scaled accordingly, using this ratio. 100 μL cells+lipid:DNA complex is dispensed into a sterile, tissue-culture treated 96-well plate (20,000 cells/well), and incubated at least 16 hours to allow expression. The cells are incubated in a 37° C.+5% CO2 incubator for >16 hrs. A serially diluted inhibitor or test compound is prepared at 100× final concentration in 100% DMSO. The serially diluted inhibitor stock is prepared in PCR plates. 1 μL per well of 100× serially diluted inhibitor/test compound is added to the cells in 96-well plates that have been transiently transfected overnight and mixed by tapping the plate by hand. The plate is incubated at 37° C.+5% CO2 incubator overnight. A 1× solution of substrate mix (500× stock) and appropriate concentration of tracer is prepared in Opti-Mem. The cells are washed by setting a plate washer to the 96 well plate 5× in PBS pH 7.4 by adding 200 μL PBS each time. The cells are incubated at 37° C. for 2 hours. 100 μL of the 1× Substrate-Tracer solution is added and the 96 well plate is gently tapped to mix. The plate on plate reader is read every hour for the next 6 hours. The binding assays of some ARCS are shown below. Compound 1-XXXII formed a covalent bond with PI3-kinase from about 5% to 20%. ARCS selected from the group consisting of Compounds 1-101, 1-102, 1-113, 1-114, 1-119, 1-120, 1-125 and 1-126 formed a covalent bond with PI3-kinase from about 80% to 100%. […]
(Bioluminescence resonance energy transfer reports proximity on the nanometre scale.)
For `C=CC(=O)CCC(=O)N1CCN(Cc2cc3c(N4CCOCC4)nc(-c4cnc(NC(=O)OC)cc4C(F)(F)F)nn3c2)CC1` [Compound 1-101], the “Binding (Percent inhibition)” value was “+++ (>80%)”.
As for `C=CC(=O)NCC(=O)N1CCN(Cc2cc3c(N4CCOCC4)nc(-c4cnc(NC(=O)OC)cc4C(F)(F)F)nn3c2)CC1` [Compound 1-102], the entry is “+++ (>80%)”; as for `COC(=O)Nc1cc(C(F)(F)F)c(-c2nc(N3CCOCC3)c3cc(CN4CCN(C(=O)CCC(=O)C=C(C)C)CC4)cn3n2)cn1` [Compound 1-113], “+++ (>80%)”; as for `COC(=O)Nc1cc(C(F)(F)F)c(-c2nc(N3CCOCC3)c3cc(CN4CCN(C(=O)CNC(=O)C=C(C)C)CC4)cn3n2)cn1` [Compound 1-114], “+++ (>80%)”.
As for `COC(=O)Nc1cc(C(F)(F)F)c(-c2nc(N3CCOCC3)c3cc(CN4CCN(C(=O)CCC(=O)/C=C/CN(C)C)CC4)cn3n2)cn1` [Compound 1-119], the “Binding (Percent inhibition)” value is “+++ (>80%)”.
Then `COC(=O)Nc1cc(C(F)(F)F)c(-c2nc(N3CCOCC3)c3cc(CN4CCN(C(=O)CNC(=O)/C=C/CN(C)C)CC4)cn3n2)cn1` [Compound 1-120], with “+++ (>80%)”; and `CC#CC(=O)CCC(=O)N1CCN(Cc2cc3c(N4CCOCC4)nc(-c4cnc(NC(=O)OC)cc4C(F)(F)F)nn3c2)CC1` [Compound 1-125], with “+++ (>80%)”.
Then `CC#CC(=O)NCC(=O)N1CCN(Cc2cc3c(N4CCOCC4)nc(-c4cnc(NC(=O)OC)cc4C(F)(F)F)nn3c2)CC1` [Compound 1-126], with “+++ (>80%)”; and `C=CC(=O)Nc1ccc(C(=O)N2CCN(Cc3cc4c(N5CCOCC5)nc(-c5cnc(NC(=O)OC)cc5C(F)(F)F)nn4c3)CC2)cc1` [Compound 1-171], with “++ (50-80%)”.
Consider `C=CC(=O)Nc1ccc(CCNCc2cc3c(N4CCOCC4)nc(-c4cnc(NC(=O)OC)cc4C(F)(F)F)nn3c2)cc1` [Compound 1-172], for which the “Binding (Percent inhibition)” value is “++ (50-80%)”.
Consider `COC(=O)Nc1cc(C(F)(F)F)c(-c2nc(N3CCOCC3)c3cc(CN4CCNCC4)cn3n2)cn1` [Compound 1-XXXII], for which the “Binding (Percent inhibition)” value is on record as “+ (<20%)”.

The values above are taken from US12029791B2, “Therapeutic conjugates” (Totus Medicines Inc., priority 2019, dated 2024).
